Source: BindingDB's records for patent US20250263370 (Tay Therapeutics, 2025)
pIC50: −log10 of the molar value.

How the values were obtained:
[1] = target: T1, Bromodomain-containing protein 4 [348-457] (Human, UniProt O60885); assay: Biological Activity Primary Activity Assay
T1 construct: 348-457
Protocol: (§1) 90 μL per well of cell suspension without tracer was also dispensed into at least 3 wells as “No tracer control samples” for background correction. Serially diluted test compounds were prepared at 1000× concentration in DMSO and further diluted to 10× concentration in Opti-MEM. […] Plates were then incubated at 37° C. +5% 002 incubator for 2 hours.

[2] = target: Bromodomain-containing protein 4 [58-164] (Homo sapiens, UniProt O60885); assay: Biological Activity Primary Activity Assay
Protocol: as §1

| IC50 [1] | pIC50 [2] | SMILES |
| --- | --- | --- |
| in the range around 0.6 µM | < 5.00 | CNC(=O)c1c(OC(C)c2ccc3c(c2)COC3)cc(C(N)=O)n1C (centres undefined) [US20250263370, Example 15] |
| in the range around 5.5 µM | < 5.00 | CCNC(=O)c1[nH]c(C(=O)NC)c([C@H](C)c2ccccc2F)c1C [US20250263370, Example 74] |
